Drawing on PubChem BioAssay (NCI), this text covers TGI for twelve compounds.

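Tested at 5 concentrations; 48 h exposure; 96-well plates; endpoints linearly interpolated, else capped at highest concentration. TGI marks complete inhibition of growth.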

Some test systems named below: COLO 205 colon; DU-145 prostate; HT29 colon; IGROV1 ovarian; KM12 colon; LOX IMVI melanoma; MALME-3M melanoma; MDA-MB-231 breast; NCI-H460 lung; NCI/ADR-RES ovarian; OVCAR-8 ovarian; SF-295 CNS; SK-MEL-28 melanoma; SK-OV-3 ovarian; SW-620 colon; UACC-257 melanoma; UACC-62 melanoma; UO-31 renal; RPMI-8226 leukemia; SK-MEL-2 melanoma.
What all share (experiment): NCI anticancer screen, dose series, 48 h

As for `O=S(=O)(c1ccccc1)[C@@H]1[C@H]2C=C[C@](CS)(O2)[C@H]1S(=O)(=O)c1ccccc1`, the TGI in the assay on COLO 205 colon, in the assay on DU-145 prostate, in the assay on HT29 colon, with IGROV1 ovarian, in the assay with KM12 colon and in the assay on LOX IMVI melanoma was over 100 µM throughout. In addition, the TGI with MALME-3M melanoma, with MDA-MB-231 breast, in the assay with NCI-H460 lung, with NCI/ADR-RES ovarian, in the assay with OVCAR-8 ovarian and in the assay on SF-295 CNS was over 100 µM throughout. Moreover, the TGI was over 100 µM with SK-MEL-28 melanoma; over 100 µM in the assay on SK-OV-3 ovarian; 30.6 µM with SW-620 colon; over 100 µM with UACC-257 melanoma; over 100 µM in the assay with UACC-62 melanoma; over 100 µM with UO-31 renal.
`O=C1CC(NCCCNC2CC(=O)c3c(Br)sc(Br)c32)c2c(Br)sc(Br)c21` (stereo unspecified): the TGI amounted to 5.89 µM in the assay with COLO 205 colon; 3.64 µM with DU-145 prostate; 4.96 µM with HT29 colon; 3.7 µM in the assay on IGROV1 ovarian; 3.5 µM in the assay with KM12 colon; 4.21 µM in the assay on MALME-3M melanoma. In addition, the TGI in the assay with MDA-MB-231 breast is 4.3 µM; in the assay with NCI-H460 lung it was over 100 µM; with NCI/ADR-RES ovarian, 5.64 µM; with RPMI-8226 leukemia, over 100 µM; in the assay on SF-295 CNS it was 14.3 µM; with SK-MEL-2 melanoma it was 5.01 µM. In addition, the TGI with SK-MEL-28 melanoma is over 24.3 µM; in the assay with SK-OV-3 ovarian it was 14.9 µM; in the assay on SW-620 colon, over 100 µM; in the assay with UACC-257 melanoma it was over 35.8 µM; in the assay with UACC-62 melanoma it was 3.86 µM.
As to `Clc1cc2nnn(C3CCCCO3)c2cc1Cl` (stereo unspecified), the TGI in the assay on COLO 205 colon, with DU-145 prostate, with HT29 colon, in the assay with IGROV1 ovarian, in the assay on KM12 colon and with MALME-3M melanoma was over 100 µM in each case. Also, the TGI in the assay with MDA-MB-231 breast, in the assay on NCI-H460 lung, with NCI/ADR-RES ovarian, with OVCAR-8 ovarian, with RPMI-8226 leukemia and with SF-295 CNS was over 100 µM in each case. Further, the TGI in the assay with SK-MEL-2 melanoma, in the assay with SK-OV-3 ovarian, in the assay on UACC-257 melanoma, with UACC-62 melanoma and in the assay with UO-31 renal was over 100 µM throughout.
For the compound `O=C(Nc1ccccc1)c1cc2c(cc1Cl)SC(NNCCO)=NS2(=O)=O`, the TGI in the assay on COLO 205 colon, in the assay with DU-145 prostate, with HT29 colon, with IGROV1 ovarian, in the assay on KM12 colon and in the assay on LOX IMVI melanoma was over 100 µM throughout. The TGI with MDA-MB-231 breast, with NCI-H460 lung, in the assay with NCI/ADR-RES ovarian, with OVCAR-8 ovarian, in the assay with RPMI-8226 leukemia and in the assay with SF-295 CNS was over 100 µM each time. The TGI in the assay on SK-MEL-2 melanoma, in the assay with SK-MEL-28 melanoma, in the assay with SK-OV-3 ovarian, in the assay with SW-620 colon, in the assay with UACC-257 melanoma and in the assay with UACC-62 melanoma was over 100 µM throughout. Further, the TGI with UO-31 renal was over 100 µM.
Consider `C=CCC1(O)C(=O)OC2C(O)COC21O` (stereo unspecified), for which the TGI in the assay with COLO 205 colon, in the assay on DU-145 prostate, in the assay on HT29 colon, in the assay on IGROV1 ovarian, in the assay with KM12 colon and in the assay on LOX IMVI melanoma was over 100 µM throughout. The TGI in the assay with MALME-3M melanoma, with MDA-MB-231 breast, with NCI-H460 lung, in the assay with NCI/ADR-RES ovarian, in the assay with OVCAR-8 ovarian and in the assay on SF-295 CNS was over 100 µM in each case. In addition, the TGI with SK-MEL-2 melanoma, in the assay with SK-MEL-28 melanoma, with SK-OV-3 ovarian, with SW-620 colon, in the assay on UACC-257 melanoma and with UACC-62 melanoma was over 100 µM throughout. This compound also came in with a TGI in the assay with UO-31 renal of over 100 µM.
As for `O=C1C=Cc2c1csc2Br`, the TGI in the assay on COLO 205 colon is over 100 µM; with DU-145 prostate, over 100 µM; with HT29 colon, over 100 µM; in the assay with IGROV1 ovarian, over 100 µM; with KM12 colon, over 100 µM; in the assay with LOX IMVI melanoma it was 60.2 µM. Besides, the TGI with MALME-3M melanoma, with MDA-MB-231 breast, with NCI-H460 lung, with NCI/ADR-RES ovarian, in the assay on OVCAR-8 ovarian and in the assay with SF-295 CNS was over 100 µM in each case. The TGI in the assay on SK-MEL-2 melanoma is over 100 µM; in the assay on SK-MEL-28 melanoma, over 100 µM; with SK-OV-3 ovarian, over 100 µM; in the assay on SW-620 colon it was 48.8 µM; in the assay with UACC-257 melanoma, over 100 µM; in the assay on UACC-62 melanoma, over 100 µM. In the assay with UO-31 renal, this compound came in with a TGI of 72.5 µM.
In the case of `CC(=O)O[C@@H]1[C@@H](C)[C@]2(CC(c3ccoc3)OC2O)C2CCC3O[C@]3(C)[C@]2(C)[C@@H]1OC(C)=O` (stereo partly specified), the TGI is 40 µM in the assay on COLO 205 colon; over 100 µM in the assay with DU-145 prostate; over 100 µM in the assay on HT29 colon; over 100 µM in the assay on IGROV1 ovarian; 86.8 µM with KM12 colon; 44.1 µM in the assay on LOX IMVI melanoma. The TGI is over 100 µM in the assay with MDA-MB-231 breast; over 100 µM in the assay on NCI-H460 lung; over 100 µM in the assay with NCI/ADR-RES ovarian; over 100 µM in the assay on OVCAR-8 ovarian; 60.7 µM with RPMI-8226 leukemia; over 100 µM in the assay with SF-295 CNS. Besides, the TGI with SK-MEL-2 melanoma was over 100 µM; with SK-MEL-28 melanoma, 81.4 µM; with SK-OV-3 ovarian it was over 100 µM; in the assay with SW-620 colon, over 100 µM; in the assay with UACC-257 melanoma it was over 100 µM; in the assay with UACC-62 melanoma, over 100 µM. The same compound yielded a TGI in the assay with UO-31 renal of over 100 µM.
For `COC(=O)C(=O)c1cc2ccccc2n1S(=O)(=O)c1ccccc1`, the TGI in the assay on COLO 205 colon, in the assay with DU-145 prostate, in the assay with HT29 colon, in the assay on IGROV1 ovarian, in the assay with KM12 colon and with LOX IMVI melanoma was over 100 µM throughout. The TGI in the assay on MALME-3M melanoma, in the assay with MDA-MB-231 breast, in the assay on NCI-H460 lung, in the assay with NCI/ADR-RES ovarian, with OVCAR-8 ovarian and with SF-295 CNS was over 100 µM in each case. In addition, the TGI with SK-MEL-2 melanoma, in the assay with SK-MEL-28 melanoma, in the assay with SK-OV-3 ovarian, with SW-620 colon, in the assay with UACC-257 melanoma and in the assay with UACC-62 melanoma was over 100 µM each time. Further, in the assay with UO-31 renal, the TGI is over 100 µM.
Regarding `COc1ccc(C(=O)/C=C/c2ccc(OCC#N)cc2)cc1OC`, the TGI in the assay with COLO 205 colon was 24.2 µM; in the assay with DU-145 prostate, 23.8 µM; in the assay with HT29 colon, 74.7 µM; in the assay with IGROV1 ovarian, over 100 µM; in the assay on KM12 colon, 18.5 µM; with MALME-3M melanoma, 38.8 µM. Also, the TGI is 42.2 µM in the assay on MDA-MB-231 breast; over 100 µM in the assay on NCI-H460 lung; 50.2 µM with NCI/ADR-RES ovarian; over 100 µM in the assay with OVCAR-8 ovarian; 29.5 µM in the assay on SK-MEL-28 melanoma; over 100 µM with SK-OV-3 ovarian. For the same compound, the values for the TGI with SW-620 colon, in the assay on UACC-62 melanoma and in the assay on UO-31 renal were 23.4 µM, 36.7 µM and 32.6 µM, respectively.
For the compound `COc1ccc2[nH]c3c(C)c4ccnc(NCCCN(C)CCCN)c4c(C)c3c2c1`, the TGI with COLO 205 colon is 0.253 µM; with DU-145 prostate, 0.652 µM; in the assay on HT29 colon it was 0.17 µM; in the assay on IGROV1 ovarian, 0.678 µM; with KM12 colon, 0.809 µM; with MALME-3M melanoma, 1.19 µM. Moreover, the TGI was 0.248 µM in the assay on MDA-MB-231 breast; 0.213 µM with NCI-H460 lung; 2.09 µM with NCI/ADR-RES ovarian; 0.376 µM in the assay on OVCAR-8 ovarian; over 100 µM in the assay on RPMI-8226 leukemia; 0.66 µM in the assay on SF-295 CNS. In addition, the TGI in the assay on SK-MEL-2 melanoma stood at 0.809 µM; in the assay with SK-MEL-28 melanoma, 1.61 µM; in the assay with SK-OV-3 ovarian, 2.47 µM; with UACC-257 melanoma it was 2.95 µM; in the assay with UACC-62 melanoma it was 0.479 µM; in the assay with UO-31 renal, 3.23 µM.
As to `O=C(Nc1ccc(Cl)cc1Cl)c1cc2nc3ccccc3c(=O)n2c2ccccc12`, the TGI in the assay with DU-145 prostate, in the assay with HT29 colon, in the assay with IGROV1 ovarian, in the assay on KM12 colon, with LOX IMVI melanoma and with MALME-3M melanoma was over 10 µM in each case. Moreover, the TGI with MDA-MB-231 breast, in the assay with NCI-H460 lung, in the assay with NCI/ADR-RES ovarian, with OVCAR-8 ovarian, in the assay with SF-295 CNS and in the assay with SK-MEL-2 melanoma was over 10 µM each time. For the same compound, the TGI in the assay on SK-MEL-28 melanoma, with SK-OV-3 ovarian, with SW-620 colon, with UACC-257 melanoma, with UACC-62 melanoma and in the assay on UO-31 renal was over 10 µM each time.
Consider `c1csc(-c2cscc2-c2cccs2)c1`, for which the TGI with COLO 205 colon is over 100 µM; in the assay with DU-145 prostate it was 8.22 µM; in the assay on HT29 colon, over 100 µM; with IGROV1 ovarian, over 100 µM; in the assay with KM12 colon it was over 100 µM; with LOX IMVI melanoma it was over 100 µM. Further, the TGI in the assay on MDA-MB-231 breast, in the assay with NCI-H460 lung, in the assay on NCI/ADR-RES ovarian, in the assay with OVCAR-8 ovarian, in the assay on RPMI-8226 leukemia and in the assay with SF-295 CNS was over 100 µM in each case. The TGI in the assay with SK-MEL-28 melanoma, in the assay on SK-OV-3 ovarian, with SW-620 colon, in the assay on UACC-257 melanoma, in the assay on UACC-62 melanoma and with UO-31 renal was over 100 µM in each case.
